# Test results taken from patent US4613355A, “Antibiotic having herbicidal activity” (Satoshi Omura, priority 1983, dated 1986).
# Structures can show the parent of a compound that is named as a salt.
# Legend:
# Type in all cases: in vivo
# Eichhornia crassipes = assay: Activity against aquatic plants (Example 12); conditions: 0.1%, 1500 liter per hectare, 4 weeks after the treatment
# Protocol: An aqueous solution containing 0.1% of Phosalacine (monosodium salt) and 0.1% of octylphenylpolyoxyethanol was applied to Eichhornia crassipes at a certain stage of growth, at a rate of 1500 liter per hectare as a foliage treatment. Damage to the plants was assessed visually 4 weeks after the treatment.
# Rumex obtusifolius = assay: Foliage treatment with different salts (Example 11); set-up: key: 0 indicates no effect; 5 indicates complete kill; conditions: Rumex obtusifolius (Plant No. 14), 1000 liter per hectare
# Protocol: Aqueous solutions containing different salts of Phosalacine at different concentrations as active ingredients and 0.1% of octylphenylpolyoxy ethanol as surfactant were applied at a rate of 1000 liter per hectare to Rumex obtusifolius (Plant No. 14) at a certain stage of growth. 21 days after foliage treatment, damage to the plant was visually assessed on a scale of 0 to 5 as hereinbefore described. The salts used were prepared by the methods described in the reference mentioned above.
# Killifishes (Medaka) = assay: Acute toxicity to fish, survival ratio (Example 13); conditions: killifish
# Protocol: Killifishes (Japanese name, Medaka), were obtained from a market and maintained in a water bath at 25±2° C. for a week. Then the fishes (each group consisting of 10 fishes) were placed in water baths containing the test compounds at given concentrations as shown in the following Table. 24 and 48 hours after this, the survival ratio (%) of each group was visually counted to assess the acute toxity.
# Digitaria adscendens = assay: Pre-emergence test (Example 6); conditions: 10 days
# Protocol: Upland soil was put in a pot of 10 cm diameter and the seeds of Digitaria adscendens were sown in the soil surface at a depth of 1 cm. After compacting the soil surface gently, the soil was sprayed evenly with solutions of Phosalacine sodium salt dissolved at different concentrations in water (each 5 ml). 10 days later, the number of emerged seedlings was counted and the percentage inhibition of emergence was evaluated by comparison with untreated plots. For comparison, a similar test was carried out using glyphosate (monosodium salt) instead of Phosalacine salt. The results shown in the following Table indicate that the pre-emergence effect of Phosalacine was better than that of glyphosate.
smiles,measurement,setting,value
CC(C)C[C@H](NC(=O)[C@H](C)NC(=O)[C@@H](N)CCP(C)(=O)O)C(=O)O [Phosalacine (Na salt)],"Damage to the plants, assessed visually",Eichhornia crassipes,completely killed
same,"Damage to plants after 21 days, scale 0 to 5",Rumex obtusifolius; 0.05%,3
same,"Damage to plants after 21 days, scale 0 to 5",Rumex obtusifolius; 0.1%,5
same,Survival ratio (%),"Killifishes (Medaka); 20 ppm, 24 hours",100%
same,Survival ratio (%),"Killifishes (Medaka); 20 ppm, 48 hours",100%
same,Survival ratio (%),"Killifishes (Medaka); 100 ppm, 24 hours",100%
same,Survival ratio (%),"Killifishes (Medaka); 100 ppm, 48 hours",50%
same,Survival ratio (%),"Killifishes (Medaka); 500 ppm, 24 hours",0%
same,Survival ratio (%),"Killifishes (Medaka); 500 ppm, 48 hours",0%
same,Percent inhibition of emergence,Digitaria adscendens; 500 g/ha,80%
same,Percent inhibition of emergence,Digitaria adscendens; 1000 g/ha,100%
same,Percent inhibition of emergence,Digitaria adscendens; 2500 g/ha,100%
